According to patent US6046228A, “Anti-viral pharmaceutical compositions containing saturated 1,2-dithiaheterocyclic compounds and uses thereof” (priority 1999, dated 2000):
Where “and” joins values, the source holds several entries; their conditions need not be identical. Equal values may be shown once. Read-outs that look alike come from different tables or passages of the source.

Columns and labels:
[1] = test system: CEM-SS cells; test: XTT assay, cytotoxicity (IC50), CEM-SS cells; format: cell-based
Description: (§1) Initial anti-HIV screening was performed with CEM-SS cells and HIV-1RFusing the XTT cytoprotection assay as previously described (Weislow et al., J. National Cancer Inst. 81: 577-586, (1989)). HIV-1 isolates included common laboratory stains (RF, IIIB and MN), as well as a panel of HIV-1 clinical isolates (Cushman et al., J. Med. Chem. 37: 3040-3050, (1994)). The pyridone-resistant HIV-1A17 isolate (Nunberg et al., J. Virol., 65: 4887-4892 (1991)) was obtained from Emilio Emini at Merck Sharpe and Dohme Laboratories. Phytohemagglutinin-stimulated human peripheral blood lymphocytes (PBLs) and fresh monocyte-macrophage (Mono/MF) cultures were prepared and utilized in antiviral assays as previously described (Rice et al., Proc. Nat'l. Academy Science, USA 90: 9721-9724, (1993)); (Cushman et al., J. Med. Chem. 37: 3040-3050, (1994)). EC50 values for these cultures indicate the drug concentration that provided a 50% reduction in viral p24 production. […] The compounds can be synthesized according to the teachings of Singh et al., Sulfur Letters 8: 107-114, (1988). […] MT-2, MT-4, U1, HeLa-CD4-LTR-β-gal and 174xCEM cells were obtained from the AIDS Research and Reference Program (National Institute of Allergy and Infectious Disease, National Institutes of Health, Bethesda, Md. USA), as were the HIV-2MS and the AZT-resistant HIV-1G910-6 isolates.
(§2) Racemate and enantiomers of the cis-1,1-dioxo[1,2]dithiane-4,5-diol were synthesized and evaluated for antiviral activity in the XTT assay as described hereinabove.

[2] = molecular target: T1, HIV-1 integrase (Human immunodeficiency virus type 1 group M subtype B, UniProt P04585); test: HIV-1 integrase activity; format: biochemical; conditions: Table 6
T1 construct: the purified HIV-1 protease and integrase enzymes

[3] = molecular target: T2, HIV-1 p7NC protein (Human immunodeficiency virus type 1 group M subtype B, UniProt P04591); test: Trp37 zinc finger fluorescence assay (zinc ejection from p7NC); format: biochemical; conditions: for p7NC Trp37 Assay (RFU): 25 μM compound
T2 construct: recombinant HIV-1 p7NC protein
Description: Fluorescence measurements of the Trp^37 residue in the C-terminal zinc finger of the recombinant HIV-1 p7NC protein were performed as previously described (Rice et al., Science 270:1194, 1995). The p7NC protein was prepared at 20 μg/ml in 10 mM sodium phosphate buffer (pH 7.0), treated with 25 μM of each compound, then after indicated time intervals the samples were diluted 1/10 in 10 mM sodium phosphate buffer (pH 7.0) and the fluorescence intensity measured. The excitation and emission wavelengths utilized with the Shimadzu RF5000 spectrofluorimeter were 280 nm and 351 nm, respectively. In an alternate assay, the zinc-selective fluorescent probe N-(6-methoxy-8quinolyl-)-p-toluenesulfonamide (TSQ, Molecular Probes, Eugene, Oreg.) originally described by Fredrickson (J. Neurosci. Meth. 20:91, 1987) was utilized to measure zinc released from the p7NC protein in vitro. Briefly, 2 μM recombinant HIV-1 p7NC protein in 10 mM sodium phosphate buffer, pH 7.0, 10% glycerol was treated with 10 μM 624151 ([…] total volume in 96-well plates), and the time-dependent increase in fluorescence was measured on a Labsystems Fluoroskan II (360 nm excitation filter and 460 nm emission filter) over a period of 2 hours. Induction of alterations of p7NC proteins within intact virions involved treatment of HIV-1MN for 1 hour at 37° C. with 25 μM test compound. Samples were centrifuged 1 hour at 4° C. under 18,000×g to pellet the virus from the drug. Virus pellets were resolved by non-reducing SDS-PAGE and analyzed by immunoblot using monospecific rabbit antisera to the purified p7NC protein.
^b The percent decrease in RFU was calculated based on measurement of
the initial fluorescence of the p7NC protein before and 10 minutes after
treatment with the 25 μM of compound at ambient temperature.
The ability of 624151 to chemically interact with the zinc fingers of the HIV-1 p7NC protein was initially determined by a fluorescence assay (Rice et al., Science 270:1194-1197, (1995)) that measures a loss in intrinsic fluorescence of the tryptophan (Trp^37) residue in the second finger of the protein that occurs upon loss of zinc from the finger (Summers et al., Protein Sci. 1:563, 1992). […] As the 624151 modifies the zinc finger thiolates and the zinc is ejected over time, the metal is bound by the TSQ fluorochrome (FIG. 1(B)).
Sodium Phosphate buffer, pH 7.0 in 1 ml was treated with 25 μM of
compound. At indicated times, the mixture was diluted 1/10 and the
relative fluorescence units (RFU) measured in a Shimadzu RF5000
spectrofluorimeter with […] and Em = 351 mn. Following
loss of zinc from the Cterminal zinc finger, the Trp37 residue folds away
from the # aqueous environment and experiences a loss of fluorescence.

[4] = test system: HIV-1RF; test: XTT cytoprotection (cytopathicity) anti-HIV assay, CEM-SS cells; format: cell-based
Description: as §1, §2

[5] = test system: HIV-1RF; test: effect of increasing multiplicity of infection, CEM-SS cells; format: cell-based; conditions: for EC50: Human immunodeficiency virus 1, CEM-SS
Description: Initial anti-HIV screening was performed with CEM-SS cells and HIV-1RFusing the XTT cytoprotection assay as previously described (Weislow et al., J. National Cancer Inst. 81: 577-586, (1989)). HIV-1 isolates included common laboratory stains (RF, IIIB and MN), as well as a panel of HIV-1 clinical isolates (Cushman et al., J. Med. Chem. 37: 3040-3050, (1994)). The pyridone-resistant HIV-1A17 isolate (Nunberg et al., J. Virol., 65: 4887-4892 (1991)) was obtained from Emilio Emini at Merck Sharpe and Dohme Laboratories. Phytohemagglutinin-stimulated human peripheral blood lymphocytes (PBLs) and fresh monocyte-macrophage (Mono/MF) cultures were prepared and utilized in antiviral assays as previously described (Rice et al., Proc. Nat'l. Academy Science, USA 90: 9721-9724, (1993)); (Cushman et al., J. Med. Chem. 37: 3040-3050, (1994)). EC50 values for these cultures indicate the drug concentration that provided a 50% reduction in viral p24 production. […] The compounds can be synthesized according to the teachings of Singh et al., Sulfur Letters 8: 107-114, (1988). The 4,5-cis-dihydroxy(1,1-dioxy-1,2,-dithiohexane) compound (NSC 624151) has been abbreviated as 624151 for convenience. MT-2, MT-4, U1, HeLa-CD4-LTR-β-gal and 174xCEM cells were obtained from the AIDS Research and Reference Program (National Institute of Allergy and Infectious Disease, National Institutes of Health, Bethesda, Md. USA), as were the HIV-2MS and the AZT-resistant HIV-1G910-6 isolates.

[6] = molecular target: T3, HIV-1 p66-p51 RT (Human immunodeficiency virus type 1 group M subtype B, UniProt P04585); test: reverse transcriptase activity assay; format: biochemical; conditions: nonphosphorylated control, in words
T3 construct: the purified HIV-1 p66-p51 RT enzyme
Description: The effects of 624151 on the in vitro activity of purified RT was determined by measurement of incorporation of [^3 H]TTP onto the poly(rA):oligo(dT)(rAdT) or poly(rC):oligo(dG)(rCdG) homopolymer template/primer systems. Samples (5 μL) were blotted onto DE81 paper, washed with 5% dibasic sodium phosphate as previously described (Buckheit et al., Antiviral Res. 21:247, (1993)), and then quantitated on a Packard Matrix 9600 dual beam counter. 3'-Azido-3'-deoxythymidine-5 '-triphosphateand UC38 (NSC 629243) served as positive controls for inhibition of RT. HIV-1 protease activity was quantitated by a reversed phase HPLC assay utilizing the […]Amide substrate (Multiple Peptide Systems, San Diego, Calif.) as previously described in Rice et al. (Proc. Nat'l. Academy of Science USA 9: 9721-9724, (1993)).

[7] = test system: attachment of HIV-1 to fresh human PBLs; test: virus attachment assay, HIV-1RF to PBLs (p24-based); format: cell-based; conditions: control; 30 min
Description: Binding of HIV-1RF to PBLs was measured by a p24-based assay (Rice, et al., Proc. Nat'l. Academy of Science USA 90: 9721-9724, (1993)). Briefly, 5×10^5 PBLs were incubated with a concentrated stock of virus for 30 min. at 37° C. in the absence or presence of various concentrations of 624151, the unbound virus was washed away, and the cell-associated virus was solubilized in 1% Triton X-100, 1% BSA and analyzed by the p24 antigen capture assay as previously described. The binding of gp120to CD4 was analyzed using an antigen capture ELISA. All steps of the assay were carried out according to the manufacturer's protocols.
^.dagger. Attachment of HIV1 to fresh human PBLs, binding of gp120 to […]

[8] = Homo sapiens, CEM-SS, Table 5, cytotoxicity, read-out: IC50 Mean
[9] = Human immunodeficiency virus 1, CEM-SS, Table 5, read-out: EC50 Mean

With `O=S1(=O)C[C@H](O)[C@H](O)CS1` (single isomer, unassigned) [NSC 693194, (+)-cis-4,5-Dihydroxy-1,2-dithiane 1,1-dioxide] the IC50 ([1]; Homo sapiens, CEM-SS, Table 5, cytotoxicity, read-out: IC50 Duplicates) was 134 µM, the IC50 [1, 8] was 134 µM and the IC50 ([1]; Homo sapiens, CEM-SS, cytotoxicity, CEM-SS cells, read-out: XTT Assay IC50) was 134 µM. The IC50 ([1]; Table 5, cytotoxicity, listed as 693194, read-out: IC50 Duplicates) was 133 µM, the “inhibition of HIV-1 integrase” value [2] was “NI100” and the “p7NC Trp37 Assay (RFU)” value ([3]; 0 min, listed as 693194) was 280 RFU. The “p7NC Trp37 Assay (RFU)” value ([3]; 3 min, listed as 693194) was 146 RFU, the “p7NC Trp37 Assay (RFU)” value ([3]; 10 min, listed as 693194) was 75 RFU and the “p7NC Trp37 Assay (RFU)” value ([3]; 30 min, listed as 693194) was 41 RFU. For the same molecule, the EC50 ([4]; Human immunodeficiency virus 1, CEM-SS, CEM-SS cells, HIV-1RF, read-out: XTT Assay EC50) was 16 µM, the EC50 [4, 9] was 16.2 µM and the EC50 ([4]; Table 5, listed as 693194, read-out: EC50 Duplicates) was 18.6 µM and 13.7 µM.

With `O=S1(=O)C[C@H](O)[C@H](O)CS1` (single isomer, unassigned) [NSC 693195, (-)-cis-4,5-Dihydroxy-1,2-dithiane 1,1-dioxide] the IC50 ([1]; Table 5, cytotoxicity, listed as 693195, read-out: IC50 Duplicates) was 129 µM and 135 µM, the IC50 ([1]; Table 5, cytotoxicity, listed as 693195, read-out: IC50 Mean) was 132 µM and the IC50 ([1]; cytotoxicity, CEM-SS cells, read-out: XTT Assay IC50) was 132 µM. The “inhibition of HIV-1 integrase” value [2] was “NI100”, the “p7NC Trp37 Assay (RFU)” value ([3]; 0 min, listed as 693195) was 279 RFU and the “p7NC Trp37 Assay (RFU)” value ([3]; 3 min, listed as 693195) was 117 RFU. For the same molecule, the “p7NC Trp37 Assay (RFU)” value ([3]; 10 min, listed as 693195) was 69 RFU, the “p7NC Trp37 Assay (RFU)” value ([3]; 30 min, listed as 693195) was 45 RFU and the EC50 ([4]; CEM-SS cells, HIV-1RF, read-out: XTT Assay EC50) was 8.8 µM. For the same molecule, the EC50 ([4]; Table 5, listed as 693195, read-out: EC50 Duplicates) was 9.04 µM and 8.64 µM, the EC50 ([4]; Table 5, listed as 693195, read-out: EC50 Mean) was 8.8 µM and the “EC50 relative to enantiomer or racemate” value ([4]; in words) was “about half that of the (+) enantiomer”.

With `Cc1cn([C@H]2C[C@H](N=[N+]=[N-])[C@@H](CO)O2)c(=O)[nH]c1=O` [AZT, 3'-azido-3'-deoxythymidine] the EC50 ([5]; MOI 0.01) was 0.019 µM, the EC50 ([5]; MOI 0.02) was 0.024 µM and the EC50 ([5]; MOI 0.04) was 1.57 µM. The EC50 ([5]; MOI 0.08) was > 10 µM, the EC50 ([5]; MOI 0.16) was > 10 µM and the EC50 ([5]; MOI 0.32) was > 10 µM. For the same molecule, the EC50 ([5]; lowest MOI) was 0.0189 µM, the “effect of increasing the MOI on activity” value ([5]; in words) was “completely inactive after only a six-fold increase in the MOI” and the IC50 [1, 8] was > 1 µM. The “inhibition of RT activity” value [6] was “not inhibitory”, the “loss of Trp37 fluorescence of p7NC” value ([3]; FIG. 1(A), 25 μM, in words) was “not by AZT control” and the EC50 ([4]; Human immunodeficiency virus 1, CEM-SS, Table 5, read-out: EC50 Duplicates) was 0.0054 µM. It also gave an EC50 [4, 9] of 0.0056 µM and an EC50 ([4]; Table 5, read-out: EC50 Duplicates) of 0.0057 µM.

With dextran sulfate [reference compound] the “IC50 Duplicates” value ([1]; Table 5, cytotoxicity) was > 95 µg/mL, the “IC50 Mean” value ([1]; Table 5, cytotoxicity) was > 95 µg/mL and the “virion binding ID50” value [7] was 1.8 µg/mL. The “EC50 Mean” value ([4]; Table 5) was 0.76 µg/mL.
